Measured values as given in ChEMBL document CHEMBL4346728, “Discovery and development of DNA polymerase IIIC inhibitors to treat Gram-positive infections” (Bioorg Med Chem, 2019).
pIC50: −log10 of the molar value. Values after ≈ are worked out from the molar mass of the structure shown. Blank lines part the entries; values can stand above or below the compound they belong to. Active and inactive are the calls of the source. The rule behind the calls is not given here.

What was measured:
Staphylococcus aureus [1] = assay: Antibacterial activity against methicillin-resistant Staphylococcus aureus by CLSI guideline based method; assay type: functional
Streptococcus pyogenes = assay: Antibacterial activity against macrolide-resistant Streptococcus pyogenes by CLSI guideline based method; assay type: functional
Enterococcus faecium [2] = assay: Antibacterial activity against vancomycin-resistant Enterococcus faecium by CLSI guideline based method; assay type: functional
Clostridioides difficile [3] = assay: Antibacterial activity against Clostridium difficile by CLSI method; assay type: functional
Staphylococcus aureus [4] = assay: Antibacterial activity against methicillin-resistant Staphylococcus aureus B42876 incubated for 16 to 24 hrs by microplate reader analysis; assay type: functional
Enterococcus faecalis [5] = assay: Antibacterial activity against Enterococcus faecalis ATCC 29212 incubated for 16 to 24 hrs by microplate reader analysis; assay type: functional
Enterococcus faecium [6] = assay: Antibacterial activity against vancomycin-resistant Enterococcus faecium incubated for 16 to 24 hrs by microplate reader analysis; assay type: functional
[7] = Inhibition of recombinant Bacillus subtilis DNA polymerase 3C expressed in Escherichia coli using activated calf thymus DNA as substrate after 10 mins in presence of dATP/dCTP/[3H]dTTP/dATP by liquid scintillation counting analysis
Escherichia coli = assay: Antibacterial activity against Escherichia coli J53 incubated for 16 to 24 hrs by microplate reader analysis; assay type: functional
Staphylococcus aureus [8] = assay: Antibacterial activity against Staphylococcus aureus ATCC 25923 incubated for 16 to 24 hrs by microplate reader analysis; assay type: functional
Bacillus subtilis [9] = assay: Antibacterial activity against Bacillus subtilis ATCC BD54 incubated for 16 to 24 hrs by microplate reader analysis; assay type: functional
Enterococcus faecium [10] = assay: Antibacterial activity against Enterococcus faecium incubated for 16 to 24 hrs by microplate reader analysis; assay type: functional
[11] = Inhibition of Bacillus subtilis DNA polymerase 3
Clostridioides difficile [12] = assay: Antibacterial activity against vancomycin-resistant Clostridium difficile by CLSI method; assay type: functional
Clostridioides difficile [13] = assay: Antibacterial activity against metronidazole-resistant Clostridium difficile by CLSI method; assay type: functional
Clostridioides difficile [14] = assay: In vivo inhibition of Clostridium difficile ATCC 43255 infected in golden syrian hamster assessed as reduction in recurrence rate at 50 mg/kg, po bid for 7 days relative to control; assay type: functional; settings: 168 h
Staphylococcus aureus [15] = assay: Antibacterial activity against Staphylococcus aureus 133 incubated for 18 hrs by broth microdilution method; assay type: functional; settings: Staphylococcus aureus, 133, 18 h
Streptococcus pneumoniae [16] = assay: Antibacterial activity against Streptococcus pneumoniae 1707/4 incubated for 18 hrs under microaerophilic condition by broth microdilution method; assay type: functional; settings: 1707/4, 18 h
Staphylococcus aureus [17] = assay: Antibacterial activity against Staphylococcus aureus 133 infected in CFW1 mouse, iv administered at 30 mins post infection and measured over 5 days; assay type: functional; settings: Staphylococcus aureus, 133, iv
[18] = Inhibition of bacterial DNA polymerase 3C using dATP/dCTP/dTTP/dGTP as substrate in presence of activated calf thymus DNA incubated for 15 mins and measured for 1 min by luciferase based enzymatic assay; set-up: species or system Bacteria
Enterococcus faecalis [19] = assay: Antibacterial activity against Enterococcus faecalis ICB 27159 infected in CFW1 mouse assessed as mouse survival at 5 mg/kg, iv administered at 30 mins post infection and measured over 5 days; assay type: functional, organism-based
Enterococcus faecalis [20] = assay: Antibacterial activity against Enterococcus faecalis ICB 27159 incubated for 18 hrs under microaerophilic condition by broth microdilution method; assay type: functional; settings: ICB 27159, 18 h
Bacillus subtilis [21] = assay: Antibacterial activity against Bacillus subtilis ATCC BD54 incubated for 16 to 18 hrs by microplate reader analysis; assay type: functional
[22] = Inhibition of Staphylococcus aureus R27 DNA polymerase 3C using activated calf thymus DNA as substrate in presence of dATP/dGTP/dCTP/[3H]dTTP measured for 20 mins
Bacillus subtilis [23] = assay: Antibacterial activity against Bacillus subtilis F2 incubated for overnight; assay type: functional
Staphylococcus aureus [24] = assay: Antibacterial activity against Staphylococcus aureus MB2865 incubated for overnight; assay type: functional
Streptococcus pneumoniae [25] = assay: Antibacterial activity against Streptococcus pneumoniae MCL5350 incubated for overnight; assay type: functional
Enterococcus faecium [26] = assay: Antibacterial activity against Enterococcus faecium RLA1 incubated for overnight; assay type: functional
[27] = Inhibition of recombinant Staphylococcus aureus DNA polymerase 3C expressed in Escherichia coli BL21 cells assessed as assessed as reduction in [3H]dTTP incorporation in to activated calf thymus DNA using calf thymus DNA as substrate incubated for 30 mins by scintillation counting analysis

Structure (SMILES): Cc1noc(C)c1C(=O)N(C)Cc1csc(NC(=O)NCc2cccc(F)c2)n1
MIC90 (Staphylococcus aureus [1]): 1 to 4 µg/mL (≈ 2.4 to 9.58 µM)
MIC90 (Streptococcus pyogenes): 1 to 4 µg/mL (≈ 2.4 to 9.58 µM)
MIC90 (Enterococcus faecium [2]): 1 to 4 µg/mL (≈ 2.4 to 9.58 µM)

Structure (SMILES): CN[C@H](CC(C)C)C(=O)N[C@H]1C(=O)N[C@@H](CC(N)=O)C(=O)N[C@H]2C(=O)N[C@H]3C(=O)N[C@H](C(=O)N[C@H](C(=O)O)c4cc(O)cc(O)c4-c4cc3ccc4O)[C@H](O)c3ccc(c(Cl)c3)Oc3cc2cc(c3O[C@@H]2O[C@H](CO)[C@@H](O)[C@H](O)[C@H]2O[C@H]2C[C@](C)(N)[C@H](O)[C@H](C)O2)Oc2ccc(cc2Cl)[C@H]1O [VANCOMYCIN]
MIC50 (Clostridioides difficile [3]): 1 µg/mL (≈ 0.69 µM)
MIC90 (Clostridioides difficile [3]): 4 µg/mL (≈ 2.76 µM)

Structure (SMILES): CCc1cc(Nc2cc(=O)n(CCCCN3CCCCC3)c(=O)[nH]2)ccc1C
MIC (Staphylococcus aureus [4]): 40 µg/mL (≈ 104 µM)
MIC (Enterococcus faecalis [5]): 20 µg/mL (≈ 52 µM)
MIC (Enterococcus faecium [6]): 10 µg/mL (≈ 26 µM)
pIC50 [7]: 7.55
MIC (Escherichia coli): > 20 µg/mL
MIC (Staphylococcus aureus [8]): 20 µg/mL (≈ 52 µM)
MIC (Bacillus subtilis [9]): 10 µg/mL (≈ 26 µM)
MIC (Enterococcus faecium [10]): 20 µg/mL (≈ 52 µM)

Structure (SMILES): CCc1cc(Nc2cc(=O)n(CCCCO)c(=O)[nH]2)ccc1C
MIC (Staphylococcus aureus [4]): 5 µg/mL (≈ 15.8 µM)
MIC (Enterococcus faecalis [5]): 5 µg/mL (≈ 15.8 µM)
MIC (Enterococcus faecium [6]): 2.5 µg/mL (≈ 7.88 µM)
pIC50 [7]: 7.20
MIC (Escherichia coli): > 20 µg/mL
MIC (Staphylococcus aureus [8]): 5 µg/mL (≈ 15.8 µM)
MIC (Bacillus subtilis [9]): < 1.25 µg/mL
MIC (Enterococcus faecium [10]): 2.5 µg/mL (≈ 7.88 µM)

pIC50 [11]: 6.00
Structure (SMILES): CCc1cc(Nc2cc(O)nc(O)n2)ccc1C

Structure (SMILES): O=c1[nH]c(NCc2ccc(Cl)c(Cl)c2)nc2ncn(CCN3CCOCC3)c12 [IBEZAPOLSTAT]
MIC50 (Clostridioides difficile [12]): 2 µg/mL (≈ 4.72 µM)
MIC90 (Clostridioides difficile [12]): 4 µg/mL (≈ 9.45 µM)
MIC50 (Clostridioides difficile [13]): 2 µg/mL (≈ 4.72 µM)
MIC90 (Clostridioides difficile [13]): 4 µg/mL (≈ 9.45 µM)
inhibition in vivo at 50 mg/kg (Clostridioides difficile [14]): 40%
MIC50 (Clostridioides difficile [3]): 2 µg/mL (≈ 4.72 µM)
MIC90 (Clostridioides difficile [3]): 4 µg/mL (≈ 9.45 µM)

Structure (SMILES): COCCS(=O)(=O)Cc1csc(NC(=O)NCc2ccc(Cl)c(Cl)c2)n1
MIC (Staphylococcus aureus [1]): 0.5 to 4 µg/mL (≈ 1.14 to 9.12 µM)
MIC (Streptococcus pyogenes): 0.5 to 4 µg/mL (≈ 1.14 to 9.12 µM)
MIC (Enterococcus faecium [2]): 0.5 to 4 µg/mL (≈ 1.14 to 9.12 µM)

MIC (Staphylococcus aureus [15]): 16 µg/mL (≈ 36.6 µM)
MIC (Streptococcus pneumoniae [16]): 8 µg/mL (≈ 18.3 µM)
pIC50 [18]: 7.00
MIC (Enterococcus faecalis [20]): 8 µg/mL (≈ 18.3 µM)
Structure (SMILES): CCc1cc(Nc2cc(=O)n(CC3CCN(C(=O)c4ccno4)CC3)c(=O)[nH]2)ccc1C
ED50 (Staphylococcus aureus [17]): 10 mg/kg
Activity (Enterococcus faecalis [19]): Active

Structure (SMILES): CS(=O)(=O)CCOCc1csc(NC(=O)NCc2ccc(Cl)c(Cl)c2)n1
MIC90 (Staphylococcus aureus [1]): 1 to 8 µg/mL (≈ 2.28 to 18.2 µM)
MIC90 (Streptococcus pyogenes): 1 to 8 µg/mL (≈ 2.28 to 18.2 µM)
MIC90 (Enterococcus faecium [2]): 1 to 8 µg/mL (≈ 2.28 to 18.2 µM)

Structure (SMILES): Cc1ncc([N+](=O)[O-])n1CCO [METRONIDAZOLE]
MIC50 (Clostridioides difficile [3]): 1 µg/mL (≈ 5.84 µM)
MIC90 (Clostridioides difficile [3]): 4 µg/mL (≈ 23.4 µM)

pIC50 [7]: 6.70
MIC (Bacillus subtilis [21]): 0.625 µg/mL (≈ 1.52 µM)
Structure (SMILES): COc1ccc(-c2cc(C(=O)N/N=C/c3cc(OC)c(OC)c(OC)c3)[nH]n2)cc1

pIC50 [22]: 5.00
Structure (SMILES): CCc1cc(Nc2cc(Oc3ccc(Br)cc3)nc(N)n2)ccc1C

MIC (Bacillus subtilis [23]): ≥ 9 µg/mL
MIC (Staphylococcus aureus [24]): ≥ 9 µg/mL
MIC (Streptococcus pneumoniae [25]): ≥ 9 µg/mL
MIC (Enterococcus faecium [26]): ≥ 9 µg/mL
pIC50 [27]: 4.15
Structure (SMILES): CCc1cc(Nc2nc(O)c3c[nH]nc3n2)ccc1C
